Assay results taken from publication PMC5290066 (Molecular and Cellular Biochemistry, 2016).
Entries after “also recorded” stand apart in the source; their conditions may differ. Read-outs that look alike come from different tables or passages of the source.

How the values were obtained:
human Rio1 [1] = target: T1, human Rio1 (Homo sapiens, UniProt Q9BRS2); assay: Rio1 autophosphorylation assay ([γ-32P]ATP); type: biochemical; details: 0.5 µM ATP; for IC50: 37 °C, 15 min, read-out: IC50 (µM) ± SD Rio1; for Ki: read-out: Ki (µM) ± SD Rio1
T1 construct: Human recombinant kinase Rio1 containing residues 134–494 was expressed and purified as previously reported; made in house
T1 sequence (Q9BRS2 134-494): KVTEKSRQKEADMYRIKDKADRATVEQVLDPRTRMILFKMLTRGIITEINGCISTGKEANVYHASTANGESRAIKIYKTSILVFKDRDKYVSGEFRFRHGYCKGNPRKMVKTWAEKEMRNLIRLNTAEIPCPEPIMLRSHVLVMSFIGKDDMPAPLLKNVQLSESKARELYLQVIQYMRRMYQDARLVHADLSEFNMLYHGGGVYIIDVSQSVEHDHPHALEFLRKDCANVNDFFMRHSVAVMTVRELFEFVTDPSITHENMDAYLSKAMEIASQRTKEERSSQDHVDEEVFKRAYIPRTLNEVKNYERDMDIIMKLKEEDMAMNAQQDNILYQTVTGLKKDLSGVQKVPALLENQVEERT
Method: Recombinant human protein kinase GST-CK2α was produced in bacteria and purified as described elsewhere. The plasmid carrying the gene encoding human protein kinase Rio1 (residues […]) was kindly gifted by Professor Nicole LaRonde—LeBlanc (University of Maryland, USA). Human recombinant kinase Rio1 containing residues 134–494 was expressed and purified as previously reported with a few modifications.
In order to determine the autophosphorylation of human Rio1, the enzyme was incubated at 37 °C for 15 min in 50 μl samples each containing 1 pmol of human recombinant Rio1 and an appropriate concentration of tested compound (0.01–50 µM). The reaction buffer contained 0.5 µM ATP, [γ-^32P]ATP (specific radioactivity 300–1000 cpm/pmol), 50 mM NaCl, 10 mM Mg^2+, 50 mM Tris–HCl pH 7.5, and 6 mM 2-mercaptoethanol.
(§1) The phosphorylation was terminated by addition of SDS/PAGE sample buffer, and proteins were resolved by electrophoresis, followed by Coomassie Brilliant Blue staining. The gels were dried and ^32P-labelled bands of P2B and Rio1 were excised from the gel, and radioactivity was determined in a scintillation counter (MicroBeta, Perkin Elmer) by Cerenkov counting.
(§2) IC50, K i, K m, and V max values were calculated using GraphPad Prism (version 4.0) software.

hCK2α [2] = target: T2, hCK2α (Homo sapiens, UniProt P68400); assay: CK2 phosphorylation assay (P2B substrate, [γ-32P]ATP); type: biochemical; set-up: GST (N); made in house; host or cells: bacteria; details: for IC50 / Ki: 20 µM ATP, P2B protein substrate; for IC50: 37 °C, 5 min, read-out: IC50 (µM) ± SD CK2; for Ki: read-out: Ki (µM) ± SD CK2; for inhibition of CK2 stronger than that of Rio1 (fold): CK2 versus Rio1
T2 sequence (P68400 whole entry): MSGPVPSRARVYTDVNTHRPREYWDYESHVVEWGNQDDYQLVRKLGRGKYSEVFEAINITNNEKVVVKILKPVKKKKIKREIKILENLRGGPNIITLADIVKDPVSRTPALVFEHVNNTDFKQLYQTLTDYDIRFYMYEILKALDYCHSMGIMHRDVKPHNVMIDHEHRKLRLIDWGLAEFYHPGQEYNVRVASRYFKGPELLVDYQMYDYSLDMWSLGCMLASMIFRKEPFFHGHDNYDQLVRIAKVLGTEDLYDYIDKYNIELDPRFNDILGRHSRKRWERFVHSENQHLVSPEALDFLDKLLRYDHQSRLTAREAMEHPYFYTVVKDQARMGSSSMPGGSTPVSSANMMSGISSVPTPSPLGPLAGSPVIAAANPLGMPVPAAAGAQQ
Method: Recombinant human protein kinase GST-CK2α was produced in bacteria and purified as described elsewhere.
The reaction buffer contained 20 µM [γ-^32P]ATP (specific radioactivity 300–1000 cpm/pmol), 15 mM Mg^2+, 20 mM Tris–HCl pH 7.5, and 6 mM 2-mercaptoethanol.
as §1, §2

[3] = system: promyelocytic leukemia cell line HL-60; set-up: method as in PMID 21229880; details: cited from earlier work
hRio1 [4] = target: T3, hRio1 (Homo sapiens, UniProt Q9BRS2); assay: Size-exclusion chromatography of Rio1 (oligomeric state); details: 100 µM TIBI, 2 mg/ml hRio1
T3 construct: Human recombinant kinase Rio1 containing residues 134–494 was expressed and purified as previously reported; made in house
T3 sequence (Q9BRS2 134-494): T1 sequence (Q9BRS2 134-494)
Method: The glass column (200/10 mm) filled with the Sephadex G-200 medium (GE Healthcare) was equilibrated with a buffer containing 10 mM Tris, pH 7.5, 150 mM NaCl, and 6 mM β-mercaptoethanol. In order to calibrate the column, four proteins, namely β-amylase (200 kDa), alcohol dehydrogenase (150 kDa), bovine serum albumin (67 kDa), and ovalbumin (43 kDa), were separately loaded onto the column. 100-µl samples containing 2 mg/ml hRio1 diluted in the equilibration buffer in the presence or absence (control) of 100 µM TIBI were then loaded onto the column. The chromatography was performed at a flow rate 0.2 ml/min using the FPLC system AKTA Purifier 10 (GE Healthcare), and runs were monitored by OD280.

human Rio1 [5] = target: T1, human Rio1; assay: Rio1 autophosphorylation assay ([γ-32P]ATP); type: biochemical
human Rio1 [6] = target: T1, human Rio1; assay: Steady-state kinetics of Rio1 autophosphorylation (Km for ATP, Vmax) with TIBI; type: biochemical
Method: Additionally, the same protocol was followed with the addition of TIBI to the reaction mixture at a concentration of 0.01, 0.05, and 0.1 µM.
as §1, §2

hCK2α [7] = target: T2, hCK2α; assay: Thermofluor (thermal shift) assay, CK2α; type: binding; details: 100 µM TIBI
Method: The procedure was performed according to the protocol described elsewhere with a few modifications. 10-µl reactions containing 50 mM NaCl, 10 mM Mg^2+, 50 mM Tris–HCl pH 7.5, 1 mg/ml hRio1 or hCK2α, and 100 µM TIBI or 5% DMSO (control) were incubated at 4 °C for 30 min. 10 µl of the SYPRO Orange dye was then added to the reactions. […] The changes in fluorescence intensity were measured as the temperature increased. Melting temperatures (T m) of hRio1 and CK2 in the presence and absence of TIBI were calculated using Bio-Rad software. The experiment was performed in duplicate.

hRio1 [8] = target: T3, hRio1; assay: Thermofluor (thermal shift) assay, Rio1; type: binding; details: 100 µM TIBI
Method: The procedure was performed according to the protocol described elsewhere with a few modifications. 10-µl reactions containing 50 mM NaCl, 10 mM Mg^2+, 50 mM Tris–HCl pH 7.5, 1 mg/ml hRio1 or hCK2α, and 100 µM TIBI or 5% DMSO (control) were incubated at 4 °C for 30 min. 10 µl of the SYPRO Orange dye was then added to the reactions. The samples were heated from 4 to 98 °C at a rate of 0.2° per second using a thermal cycler (CFX 1000, Bio-Rad). The changes in fluorescence intensity were measured as the temperature increased. Melting temperatures (T m) of hRio1 and CK2 in the presence and absence of TIBI were calculated using Bio-Rad software. The experiment was performed in duplicate.

hRio1 [9] = target: T3, hRio1; details: cited from earlier work
human Rio1 [10] = target: T1, human Rio1; details: cited from earlier work

Compound	IC50 (human Rio1 [1]) [µM]	Ki (human Rio1 [1]) [µM]	IC50 (hCK2α [2]) [µM]	Ki (hCK2α [2]) [µM]	also measured
CN(C)c1nc2c(I)c(I)c(I)c(I)c2n1C [TIdiMe, 2-dimethylamino-1-metyl-4,5,6,7-tetraiodobenzimidazole]	0.24 ± 0.008	0.135 ± 0.005	0.2 ± 0.006	0.085 ± 0.003	–
CC(CC(=O)O)Cn1c(N(C)C)nc2c(Br)c(Br)c(Br)c(Br)c21 (stereo not shown) [TDBB, 3-methyl-4-[4,5,6,7-tetrabromo-2-(dimethylamino)benzimidazole-1-yl]butanoic acid]	2.17 ± 0.06	1.23 ± 0.03	1.51 ± 0.04	0.647 ± 0.014	–
NCCNc1nc2c(I)c(I)c(I)c(I)c2[nH]1 [TI-2Am, 4,5,6,7-tetraiodobenzimidazole-2-amine-ethylamine]	0.23 ± 0.01	0.13 ± 0.005	0.05 ± 0.002	0.021 ± 0.001	inhibition of CK2 stronger than that of Rio1 (fold) (hCK2α [2]): ca. sixfold stronger
Cc1nc2c(I)c(I)c(I)c(I)c2[nH]1 [K92, 4,5,6,7-tetraiodo-2-methylbenzimidazole]	0.19 ± 0.011	0.1 ± 0.004	0.066 ± 0.003	0.025 ± 0.001	inhibition of CK2 stronger than that of Rio1 (fold) (hCK2α [2]): fourfold stronger
Ic1c(I)c(I)c2[nH]cnc2c1I [TIBI, 4,5,6,7-tetraiodobenzimidazole]	0.09 ± 0.005	0.05 ± 0.002	0.083 ± 0.003	0.035 ± 0.001	proapoptotic activity [3]: proapoptotic activity; effect on oligomeric state (monomer–tetramer equilibrium) of Rio1 (hRio1 [4]): does not influence the oligomeric state; also recorded: did not observe any changes in the monomer–tetramer equilibrium; IC50 (human Rio1 [5]; IC50 against Rio1 at 0.01 µM ATP, 0.01 µM ATP): 46 nM; IC50 (human Rio1 [5]; IC50 against Rio1 at 0.1 µM ATP, 0.1 µM ATP): 61 nM; IC50 (human Rio1 [5]; IC50 against Rio1 at 1 µM ATP, 1 µM ATP): 101 nM; mode of inhibition of Rio1 (human Rio1 [6]): strict ATP-competitive inhibitors; Vmax of Rio1 in the presence of TIBI (human Rio1 [6]; no shift with increasing TIBI concentration): 0.09 pmol/s; ΔTm at 100 µM (hCK2α [7]; bound versus unbound, read-out: shift in melting temperature (Tm) of CK2α): 20 °C; melting temperature (Tm) of TIBI-bound CK2α (hCK2α [7]; unbound enzyme 58.8 °C): 78.8 °C; ΔTm at 100 µM (hRio1 [8]; bound versus unbound, read-out: shift in melting temperature (Tm) of Rio1): 10 °C; melting temperature (Tm) of bound Rio1 (hRio1 [8]; unbound enzyme 58.8 °C): 68.8 °C
CN(C)c1nc2c(Br)c(Br)c(Br)c(Br)c2[nH]1 [DMAT, 2-dimethylamino-4,5,6,7-tetrabromobenzimidazole, reference compound]	0.19 ± 0.009	0.1	–	–	–
Brc1c(Br)c(Br)c2[nH]cnc2c1Br [TBI, 4,5,6,7-tetrabromobenzimidazole]	0.33 ± 0.007	0.186 ± 0.009	–	–	–
CN(C)c1nc2c(Br)c(Br)c(Br)c(Br)c2n1C [1Me-DMAT, 4,5,6,7-tetrabromo-N,N,1-trimethylbenzimidazole-2-amine]	0.61 ± 0.02	–	0.39 ± 0.012	0.167	inhibition of CK2 stronger than that of Rio1 (fold) (hCK2α [2]): twofold stronger
Cn1c(SCC(=O)O)nc2c(Br)c(Br)c(Br)c(Br)c21 [TBTS, [(4,5,6,7-tetrabromo-N,N,1-trimethylbenzimidazole-2-yl)sulfanyl]acetic acid]	–	0.39 ± 0.011	0.6 ± 0.03	0.257 ± 0.009	–
N#Cc1cn([C@@H]2O[C@H](CO)[C@@H](O)[C@H]2O)c2ncnc(N)c12 [Toyocamycin, toyocamycin, reference compound]	3.66 ± 0.09	2.07 ± 0.07	54.8 ± 1.9	23.5 ± 0.8	shift in Tm of human Rio1 bound to toyocamycin (hRio1 [9]): 12.1 °C; mode of inhibition of Rio1 (human Rio1 [10]): mixed inhibition
CC(CC(=O)O)Sc1nc2c(Br)c(Br)c(Br)c(Br)c2[nH]1 (stereo not shown) [TBSB, 3-(4,5,6,7-tetrabromobenzimidazole-2-ylsulfanyl)butanoic acid]	0.65 ± 0.03	0.367 ± 0.012	0.33 ± 0.013	0.141 ± 0.005	inhibition of CK2 stronger than that of Rio1 (fold) (hCK2α [2]): twofold stronger
Brc1c(I)c(Br)c2nc[nH]c2c1I [K95, 4,6-dibromo-5,7-diiodobenzimidazole]	0.29 ± 0.009	0.164 ± 0.007	0.3 ± 0.009	0.128 ± 0.005	–
O=C(O)c1ccc2c(c1)nc(Nc1cccc(Cl)c1)c1ccncc12 [CX-4945, Silmitasertib, reference compound]	0.37 ± 0.011	0.209 ± 0.008	–	–	–
Clc1c(Cl)c(Cl)c2[nH]cnc2c1Cl [TCI, 4,5,6,7-tetrachlorobenzimidazole]	1.9 ± 0.07	1.07 ± 0.04	9.7 ± 0.3	4.15 ± 0.1	–
Brc1c(Br)c(Br)c2[nH]nnc2c1Br [TBB, 4,5,6,7-Tetrabromo-2-azabenzimidazole, reference compound]	1.74 ± 0.05	0.983 ± 0.03	–	–	–
